Values after ≈ are worked out from the molar mass of the structure shown. Like-named read-outs stand apart in the source and are kept apart here.
Tests used:
[1] = tested on: Bacteroides fragilis (ATCC 25285); assay: Antibacterial activity, CFU viability; format: cell-based; details: ATCC25285, mean of two determinations, read-out: Mean IC50 ± SD
Experimental: (§1) Pure standard microbial isolates collected from King Khaled University Hospital were tested in this study, including Enterococcus faecalis (ATCC 29122) as Gram positive bacteria and Escherichia coli (ATCC 25922) and Bacteroides fragilis (ATCC 25285) as Gram negative bacteria. Fresh cultures of each microorganism were grown on nutrient agar plates (Oxoid, UK), of which small inoculums were suspended in 5 mL nutrient broth for bacterial suspension preparation of 0.5MacFarland. Bacterial viability was investigated by estimating the colony-forming unit (CFU) ability of the bacteria incubated at different time intervals without or with appropriate amounts of the compound that were mixed with 2 × 10^7 CFU/mL in sterile BHI broths and were incubated under shaking for 60 min at 37 °C. Samples were serially diluted into sterile BHI broths, streaked onto media agar plates, and incubated for 24 h at 37 °C. The antibacterial potency of tested compounds was expressed as the residual number of CFU with reference to the initial inoculums. […] Ampicillin (1 mg/mL) was used as a positive standard reference.

[2] = tested on: Enterococcus faecalis (ATCC 29122); assay: Antibacterial activity, CFU viability; format: cell-based; details: ATCC29122, mean of two determinations, read-out: Mean IC50 ± SD
Experimental: as §1

[3] = tested on: Escherichia coli (ATCC 25922); assay: Antibacterial activity, CFU viability; format: cell-based; details: ATCC25922, mean of two determinations, read-out: Mean IC50 ± SD
Experimental: as §1

COX-2 = target: T1, COX-2 (Homo sapiens, UniProt P35354); assay: Cyclooxygenase (COX-2) inhibition assay (Cayman kit 701080); format: biochemical; details: for inhibition at 100 µg/mL: read-out: Mean Inhibition % at 100 µg/ml ± SD; for inhibition at 200 µg/mL: read-out: Mean Inhibition % at 200 µg/ml ± SD
T1 construct: purchased Cayman Chemical Company 701080
T1 sequence (P35354 18-604): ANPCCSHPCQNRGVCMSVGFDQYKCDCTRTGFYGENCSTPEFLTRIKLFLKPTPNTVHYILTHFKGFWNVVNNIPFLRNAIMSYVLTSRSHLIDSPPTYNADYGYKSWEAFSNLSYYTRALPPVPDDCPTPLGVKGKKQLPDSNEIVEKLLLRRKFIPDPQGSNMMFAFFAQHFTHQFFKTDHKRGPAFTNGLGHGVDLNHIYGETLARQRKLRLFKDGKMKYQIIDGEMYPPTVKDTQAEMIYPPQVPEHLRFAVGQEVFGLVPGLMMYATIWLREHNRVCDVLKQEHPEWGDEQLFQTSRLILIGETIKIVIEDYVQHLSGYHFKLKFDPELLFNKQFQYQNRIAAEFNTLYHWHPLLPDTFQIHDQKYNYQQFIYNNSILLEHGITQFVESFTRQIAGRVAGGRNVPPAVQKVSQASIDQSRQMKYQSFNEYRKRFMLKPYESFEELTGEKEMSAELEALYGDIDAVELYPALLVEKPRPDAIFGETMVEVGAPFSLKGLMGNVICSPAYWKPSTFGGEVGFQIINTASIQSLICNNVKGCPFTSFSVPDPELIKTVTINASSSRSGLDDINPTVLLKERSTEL
Experimental: The compounds were resuspended in 100% DMSO at a final concentration of 10 mg/mL. […] The inhibitory activity was expressed as the inhibition percentage, which was determined by comparison with a control experiment. IC50 values were deduced from the curves.

[4] = target: purified recombinant human LDHA protein (Homo sapiens, UniProt P00338); assay: Lactate dehydrogenase-A (LDHA) inhibition assay, NADH consumption; format: biochemical; details: for inhibition at 100 µg/mL / inhibition at 200 µg/mL / IC50: LDHA; for inhibition at 100 µg/mL: read-out: Mean Inhibition % at 100 µg/ml ± SD; for inhibition at 200 µg/mL: read-out: Mean Inhibition % at 200 µg/ml ± SD; for fold by which (6e) is more potent than the labelled compound (LDHA inhibition efficiency): comparator 6e
Experimental: LDHA inhibition activity was investigated by measuring the amounts of consumed NADH as described by Kim and his group. Briefly, different concentrations of each compound (50, 100, 200, and 300 µg) were incubated in buffer containing 20 mM of HEPES-K+ (pH 7.2), 20 μM of NADH, 2 mM of pyruvate, and 10 ng of purified recombinant human LDHA protein for 10 min. The fluorescence of NADH, which has an excitation wavelength of 340 nm and emission wavelength of 460 nm, was detected using a Spectrofluorometer.

[5] = In vitro cytotoxicity assay (LDH release); format: cell-based, human; details: human
Experimental: The best-in-class compounds, including (4c), (4d), (6a), (6b), (6d), (6e), and (6g), which were recognized as antimicrobial and enzymatic inhibitors, were further examined for their cytotoxic effects on LoVo and HCT-116 cells of human colon cancer. This was carried out by determining the residual percentages of viable cells after being treated with the compounds at different concentrations (50, 100, 200, and 400 µg/mL), using triton X-100 (at concentration of 0.1%) in the assay medium and the assay as the positive and negative controls, respectively.
Samples were diluted in Dulbecco’s modified Eagles medium, consisting of 10% fetal bovine serum, added to cells grown and cultured for 24 h in a 5% CO2-humidified incubator at 37 °C. Then, the activity of lactate dehydrogenase released from damaged cells was determined in the collected supernatant aliquots using an ELISA end-point assay (Benchmark Plus, Bio-Rad, CA, USA). The 0.1% Triton X-100 in the assay medium and the assay medium only were used as positive and negative controls, respectively. Cell viability, expressed as a relative percentage of the OD values (at 550 nm) for compound-treated cells (final concentration of 200 µg) and the control, is shown as mean ± SD (n = 2).

[6] = HCT-116 colon cancer cells, read-out: Mean % Cell Viability ± SD CRC-HCT-116 cells
[7] = LoVo colon cancer cells, read-out: Mean % Cell Viability ± SD CRC-LoVo cells

Row | SMILES | IC50 [1] [µg/mL] | IC50 [2] [µg/mL] | IC50 [3] [µg/mL] | inhibition at 100 µg/mL (COX-2) [%] | inhibition at 200 µg/mL (COX-2) [%] | inhibition at 100 µg/mL [4] [%] | inhibition at 200 µg/mL [4] [%] | viability at 24 h, 200 µg/mL [5, 6] [%] | viability at 24 h, 200 µg/mL [5, 7] [%] | IC50 [4] [µM] | viability at 24 h, 200 µg/ml [5, 6] [%] | viability at 24 h, 200 µg/ml [5, 7] [%] | fold by which (6e) is more potent than the labelled compound (LDHA inhibition efficiency) ([4]; 200 µg/mL) [fold] | IC50 (COX-2) [µM] | IC50 at 24 h ([5]; HCT-116 human colon cancer cells, HCT-116 cells) [µg/mL] | IC50 at 24 h ([5]; LoVo human colon cancer cells, LoVo cells) [µg/mL] | fold decrease of LDHA inhibition efficiency relative to (6g) ([4]; 200 µg/mL, comparator 6g) [fold]
1 | CC1(C)S[C@@H]2[C@H](NC(=O)[C@H](N)c3ccccc3)C(=O)N2[C@H]1C(=O)O [Ampicillin, ampicillin, reference compound] | 16.1 (≈ 46.2 µM) | 12.8 (≈ 36.5 µM) | 20.2 (≈ 58 µM) | – | – | – | – | – | – | – | – | – | – | – | – | – | –
2 | O=c1[nH]c2ccccc2[nH]c1=O [Compound 1] | 19.4 ± 1.48 (≈ 119 µM) | 20.2 ± 1.06 (≈ 125 µM) | 25.9 ± 0.778 (≈ 159 µM) | 30.9 ± 2.62 | 48.1 | 33.8 ± 2.55 | 68.2 | – | – | – | – | – | – | – | – | – | –
3 | NN=c1[nH]c2ccccc2[nH]c1=O [Compound 2, 3-hydrazineylidene-3,4-dihydro quinoxalin-2(1H)-one] | 14.5 ± 0.99 (≈ 82.3 µM) | 13.6 ± 0.566 (≈ 77.2 µM) | 13.7 ± 1.34 (≈ 77.5 µM) | 7.55 ± 0.778 | 15.4 ± 2.19 | 26.7 ± 1.84 | 47.1 | – | – | – | – | – | – | – | – | – | –
4 | COc1cc(C=NNc2nc3ccccc3[nH]c2=O)cc(Cl)c1O [Compound 4a, 3-[N’-(3-Chloro-4-hydroxy-5-methoxy-benzylidene)-hydrazino]-1H-quinoxalin-2-one] | 13.3 ± 0.849 (≈ 38.6 µM) | 27 ± 2.83 (≈ 78.3 µM) | 15 ± 0.566 (≈ 43.5 µM) | 4.65 ± 0.495 | 12.1 | 20.3 ± 1.63 | 28.2 | – | – | – | – | – | – | – | – | – | –
5 | COc1cc(C=NNc2nc3ccccc3[nH]c2=O)cc(I)c1O [Compound 4b, 3-[N’-(4-Hydroxy-3-iodo-5-methoxy-benzylidene)-hydrazino]-1H-quinoxalin-2-one] | 40.6 ± 2.33 (≈ 93.2 µM) | 30.3 ± 2.4 (≈ 69.5 µM) | 13.6 ± 0.849 (≈ 31.2 µM) | 12.3 ± 0.919 | 21.1 | 27.4 ± 2.4 | 35.4 | – | – | – | – | – | – | – | – | – | –
6 | COc1cc(C=NNc2nc3ccccc3[nH]c2=O)cc([N+](=O)[O-])c1O [Compound 4c, 3-[N’-(4-Hydroxy-3-methoxy-5-nitro-benzylidene)-hydrazino]-1H-quinoxalin-2-one] | 8.05 ± 0.778 (≈ 22.7 µM) | 9.6 (≈ 27 µM) | 12.7 ± 0.778 (≈ 35.6 µM) | 36.5 ± 3.46 | 61.1 | 40.6 ± 2.33 | 64.2 | 77.3 ± 3.25 | 72.2 ± 4.45 | – | – | – | – | – | – | – | –
7 | O=C(O)c1ccc(/C=N/Nc2nc3ccccc3[nH]c2=O)cc1 [Compound 4d, 4-[(3-Oxo-3,4-dihydro-quinoxalin-2-yl)-hydrazonomethyl]-benzoic acid] | 28.2 ± 1.77 (≈ 91.6 µM) | 10.8 (≈ 35 µM) | 30.6 ± 2.62 (≈ 99.1 µM) | 14.4 ± 0.778 | 28.9 | 47.4 ± 3.96 | 85 | – | – | 362 | 65.5 ± 3.54 | 60 ± 4.24 | – | – | – | – | –
8 | COc1ccc2cc(C=NNc3nc4ccccc4[nH]c3=O)ccc2c1 [Compound 4e, 3-[N’-(6-Methoxy-naphthalen-2-ylmethylene)-hydrazino]-1H-quinoxalin-2-one] | 27.1 ± 1.84 (≈ 78.7 µM) | 18.2 ± 0.99 (≈ 52.8 µM) | 31.4 ± 1.48 (≈ 91.3 µM) | 30.3 ± 1.84 | 54 | 21.1 ± 2.19 | 31.2 | – | – | – | – | – | – | – | – | – | –
9 | Cc1nc2ccc(Cl)cc2c(=O)n1N [Compound 5b] | 37 ± 2.83 (≈ 176 µM) | 27.5 ± 2.12 (≈ 131 µM) | 13.6 ± 1.48 (≈ 64.6 µM) | 5.7 ± 0.99 | 9.05 | 11.8 ± 1.06 | 21.2 | – | – | – | – | – | 3.6 | – | – | – | –
10 | COc1cc2nc(C)n(N=Cc3cc(OC)c(O)c([N+](=O)[O-])c3)c(=O)c2cc1OC [Compound 6a, 3-[(4-Hydroxy-3-methoxy-5-nitro-benzylidene)-amino]-6,7-dimethoxy-2-methyl-3H-quinazolin-4-one] | 10.9 ± 0.566 (≈ 26.3 µM) | 13.8 ± 0.495 (≈ 33.4 µM) | 7.9 ± 0.849 (≈ 19.1 µM) | 42.9 ± 2.97 | 83 | 62.5 | 89.7 | 91.2 ± 3.11 | 92.2 ± 2.62 | 248 | – | – | – | 293 | – | – | –
11 | COc1cc2nc(C)n(N=Cc3ccc(C(=O)O)cc3)c(=O)c2cc1OC [Compound 6b, 4-[(6,7-Dimethoxy-2-methyl-4-oxo-4H-quinazolin-3-ylimino)-methyl]-benzoic acid] | 10.3 ± 1.2 (≈ 28.2 µM) | 12.7 (≈ 34.4 µM) | 18.2 ± 0.99 (≈ 49.5 µM) | 37.1 ± 2.69 | 69 ± 2.76 | 32 ± 2.55 | 49.2 | 47 ± 2.83 | 54.2 ± 2.47 | – | – | – | – | – | – | – | –
12 | COc1ccc2cc(/C=N/n3c(C)nc4ccc(Cl)cc4c3=O)ccc2c1 [Compound 6c, 6-Chloro-3-oro-3-[(6-methoxy-naphthalen-2-ylmethylene)-amino]-2-methyl-3H-quinazolin-4-one] | 30.1 ± 0.636 (≈ 79.5 µM) | 20.4 ± 1.2 (≈ 54.1 µM) | 26.9 ± 1.56 (≈ 71.2 µM) | 23.8 ± 2.55 | 36.9 ± 1.63 | 13.3 ± 0.919 | 23 | – | – | – | – | – | 3.3 | – | – | – | –
13 | COc1cc2nc(C)n(N=Cc3ccc(OCc4ccccc4)c(OC)c3)c(=O)c2cc1OC [Compound 6d, 3-[(4-Benzyloxy-3-methoxy-benzylidene)-amino]-6,7-dimethoxy-2-methyl-3H-quinazolin-4-one] | 9 ± 0.99 (≈ 19.6 µM) | 15.2 ± 0.919 (≈ 33 µM) | 18.4 ± 1.27 (≈ 40 µM) | 50.2 | 97.5 | 31.2 ± 1.63 | 44.4 ± 3.39 | 18.5 | 26.8 | – | – | – | 1.7 | 215 | 100 (≈ 218 µM) | 128 (≈ 277 µM) | –
14 | CCc1ccc(/C=N/n2c(C)nc3ccc(Cl)cc3c2=O)s1 [Compound 6f, 6-Chloro-3-oro-3-[(5-ethyl-thiophen-2-ylmethylene)-amino]-2-methyl-3H-quinazolin-4-one] | 27.9 ± 1.56 (≈ 84.1 µM) | 22.6 ± 0.636 (≈ 68 µM) | 33.4 ± 3.39 (≈ 101 µM) | 10 ± 1.41 | 20.7 | 27.1 ± 1.48 | 40 | – | – | – | – | – | 1.9 | – | – | – | 2.2
